Measured values taken from patent US20120035214A1, “RENIN INHIBITORS” (Merck Canada Inc., priority 2009, published 2012).

How the values were obtained:
[1] = molecular target: T1, recombinant renin in human plasma (Homo sapiens, UniProt P00797); assay: Inhibition of renin in human plasma (QFRET, plasma); format: biochemical; settings: human EDTA plasma with 1 nM recombinant renin added; 37° C., 1 hour
T1 construct: purchased Proteos
T1 sequence (P00797 67-406): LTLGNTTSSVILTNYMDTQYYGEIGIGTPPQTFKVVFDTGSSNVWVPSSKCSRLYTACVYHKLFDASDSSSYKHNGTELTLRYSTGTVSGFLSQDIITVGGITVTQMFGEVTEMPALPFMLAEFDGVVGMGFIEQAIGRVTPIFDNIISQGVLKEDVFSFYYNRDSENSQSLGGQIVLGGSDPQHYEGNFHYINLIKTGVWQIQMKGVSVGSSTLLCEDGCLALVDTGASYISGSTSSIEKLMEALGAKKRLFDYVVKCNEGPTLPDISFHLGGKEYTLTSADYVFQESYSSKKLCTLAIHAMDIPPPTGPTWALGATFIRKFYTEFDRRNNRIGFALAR
Description: Inhibition of Renin in Human Plasma
Human EDTA-collected plasma is rapidly thawed in warm water and centrifuged at 2900 g for 15 minutes at 4° C. The supernatant is collected and recombinant renin (Proteos) is added at a final concentration of 1 nM. The plasma is transferred to a Costar black 384 well plate (#3573). Renin inhibitors are added from a 17.5 fold concentrated DMSO solution and pre-incubated at 37° C. for 10 minutes. The internally-quench fluorescent peptide QXL520™-[…](5-FAM) (Anaspec), SEQ ID NO: 2, is diluted in 3M Tris pH 7.2, 200 mM EDTA and added to the plasma. The final concentrations are: 6 μM substrate, 342 mM Tris, 23 mM EDTA. The plate is incubated at 37° C. for 1 hour. The plate is read in a SpectraMax Gemini EM reader set at an excitation wavelength of 490 nm and an emission wavelength of 520 nm at times 0 and 1 hour. Background fluorescence at t=0 is subtracted from the measurement at t=1 hour. Inhibitory activity of the compounds is expressed as IC50.

[2] = molecular target: T2, Human recombinant renin (Homo sapiens, UniProt P00797); assay: Inhibition of human recombinant renin (QFRET, buffer); format: biochemical; settings: buffer: 50 mM MOPS pH 7.4, 100 mM NaCl, 0.002% Tween 20; 37° C., 3 hours
T2 construct: purchased Proteos
T2 sequence (P00797 67-406): T1 sequence (P00797 67-406)
Description: Inhibition of Human Recombinant Renin
Human recombinant renin (Proteos) in 50 mM MOPS pH 7.4, 100 mM NaCl, 0.002% Tween 20 at a final concentration of […] is incubated with inhibitors from a 50 fold concentrated DMSO solution and 6 μM of an internally-quenched fluorescent peptide: DNP-[…]D,L-Amp (SEQ ID NO: 1); Paschalidou K. et al., Biochem J., 2004, 382, 1031). The reactions take place in a Costar 384 well black plate (#3573) at 37° C. for 3 hours. Fluorescence is measured at times 0 and 3 hours with a SpectraMax Gemini EM reader set at an excitation wavelength of 328 nm and at an emission wavelength of 388 nm. Background fluorescence at t=0 is subtracted from the measurement at t=3 hours. Inhibitory activity of the compounds is expressed as IC50.

| SMILES | IC50 [1] | IC50 [2] |
| --- | --- | --- |
| CC(=O)NCCc1ccccc1-c1onc([C@H]2CNCC[C@]2(O)c2ccc(C)c(F)c2)c1Br [Structure 105] | 29 nM | 4.9 nM |
| CC(=O)NCCc1cc(F)ccc1-c1onc([C@H]2CNCC[C@]2(O)c2ccc(F)c(F)c2)c1Br [Structure 86] | 0.68 nM | 0.14 nM |
| COCCCc1ccccc1-c1ccc([C@H]2CNCC[C@@H]2c2ccc(N)nc2)c(Cl)c1 (racemic) [Structure 52] | 1630 nM | 150 nM |
| COCCC[C@@H](CNC(C)=O)c1ccccc1-c1onc([C@H]2CNCC[C@]2(O)c2ccc(F)c(F)c2)c1Br [Structure 100] | 3.9 nM | 1.2 nM |
| CC(=O)NCCc1ccccc1-c1onc([C@H]2CNCC[C@]2(OC(N)=O)c2ccc(F)c(F)c2)c1Br [Structure 118] | 0.55 nM | 0.22 nM |
| Cc1cccc(-c2noc([C@H]3CNCC[C@]3(O)c3ccc(F)c(F)c3)c2Br)c1C [Structure 73] | 21 nM | 0.47 nM |
| CC(=O)NCCc1ccccc1-c1ccc([C@H]2CNCC[C@@H]2c2cccnc2N)c(Cl)c1 (racemic) [Structure 45] | 4580 nM | 710 nM |
| CC(=O)NCCc1ccccc1-c1onc([C@H]2CNCC[C@]2(F)c2ccc(F)c(F)c2)c1Br [Structure 81] | 0.44 nM | 0.053 nM |
| COC[C@H](C)COCc1ccc([C@@]2(O)CCNC[C@@H]2c2ccc(-c3ccccc3CCNC(C)=O)cc2C)cc1 [Structure 129] | 0.44 nM | 0.05 nM |
| Cc1cc(-c2ccccc2CCNC(=O)c2ccccc2)ccc1[C@H]1CNCC[C@@H]1c1cc(F)cc(F)c1 (racemic) [Structure 22] | 1170 nM | 20 nM |
| Cn1c(-c2ccccc2)cnc1[C@H]1CNCC[C@]1(O)c1ccc(F)c(F)c1 [Structure 92] | > 28000 nM | 1990 nM |
| Fc1ccc([C@@]2(F)CCNC[C@@H]2c2onc(-c3cccc(Cl)c3Cl)c2Br)cc1F [Structure 77] | 7.9 nM | 0.25 nM |
| COC(=O)NCCc1ccccc1-c1ccc([C@H]2CNCC[C@@H]2c2ccc(F)c(F)c2)c(Cl)c1 (racemic) [Structure 42] | 9.8 nM | 0.14 nM |
| COCCCc1ccccc1-c1ccc([C@H]2CNCC[C@@H]2c2ccccc2)c(C)c1 (racemic) [Structure 1] | > 10000 nM | 620 nM |
| COC[C@H](C)COCc1ccc([C@@]2(O)CCNC[C@@H]2c2ccc(-c3ccccc3CCN3CCOC3=O)cc2C)cc1 [Structure 125] | 76 nM | 4.6 nM |
| Cc1cc(-c2ccccc2CCCO)ccc1[C@H]1CNCC[C@@H]1c1cc(F)cc(F)c1 (racemic) [Structure 7, (+/−)-trans-3-{4′-[4-(3,5-difluorophenyl)piperidin-3-yl]-3′-methylbiphenyl-2-yl}propan-1-ol] | 3150 nM | 85 nM |
| CC(=O)NCCc1ccccc1-c1ccc([C@H]2CNCC[C@@H]2c2cc(F)cc(F)c2)c(C)c1 (racemic) [Structure 15] | 18 nM | 1.6 nM |
| CC(=O)NCCc1ccccc1-c1ccc([C@H]2CNCC[C@@H]2c2cccnc2)c(C)c1 [Structure 4] | 28 nM | 6.1 nM |
| Cc1cc(-c2ccccc2OCc2ccccc2)ccc1[C@H]1CNCC[C@@H]1c1cc(F)cc(F)c1 (racemic) [Structure 37] | 12400 nM | 87 nM |
| COCCCc1cccc(C)c1-c1ccc([C@H]2CNCC[C@@H]2c2cccnc2)c(C)c1 (racemic) [Structure 12] | 150 nM | 10 nM |
| COC[C@H](C)COCc1ccc([C@@]2(O)CCNC[C@@H]2c2ccc(-c3ccccc3CCNC(C)=O)cc2C)cc1 (racemic) [Structure 54] | 1.2 nM | 0.13 nM |
| COC[C@H](C)COCc1ccc([C@@]2(O)CCNC[C@@H]2c2noc(-c3ccccc3CCNC(C)=O)c2Br)cc1 [Structure 89] | 1.2 nM | 0.32 nM |
| Cc1cc(-c2ccccc2COc2ccccc2)ccc1[C@H]1CNCC[C@@H]1c1cc(F)cc(F)c1 (racemic) [Structure 35] | 1890 nM | 3.8 nM |
| COC[C@H](C)COCc1ccc([C@@]2(O)CCNC[C@@H]2c2ccc(-c3ccccc3CCNC(N)=O)cc2C)cc1 [Structure 124] | 3.6 nM | 0.63 nM |
| COCC(=O)NCCc1ccccc1-c1ccc([C@H]2CNCC[C@@H]2c2ccn(C)c(=O)c2)c(Cl)c1 (racemic) [Structure 64] | 77 nM | 110 nM |
| CC(=O)NCCc1ccccc1-c1onc([C@H]2CNCC[C@]2(O)c2ccc(F)c(F)c2)c1C(C)=O [Structure 83] | 4.2 nM | 2.8 nM |
| CC(=O)NCCc1cc(C(F)(F)F)ccc1-c1ccc([C@H]2CNCC[C@@H]2c2ccc(F)c(F)c2)c(Cl)c1 (racemic) [Structure 47] | 140 nM | 0.59 nM |

Results, then the compound that gave them:

| IC50 [1] | IC50 [2] | SMILES |
| --- | --- | --- |
| 18 nM | 0.4 nM | CC(=O)NCCc1ccccc1-c1ccc([C@H]2CNCC[C@]2(O)c2ccc(OC(F)(F)F)c(F)c2)c(C)c1 [Structure 132] |
| 1.9 nM | 0.7 nM | CC(=O)NCCc1ccccc1-c1onc([C@H]2CNCC[C@]2(O)c2ccc(F)c(F)c2)c1Cl [Structure 104] |
| 16 nM | 0.59 nM | CC(=O)NCCc1ccccc1-c1ccc([C@H]2CNCC[C@@H]2c2cc(F)cc(F)c2)c(C)c1 [Structure 16] |
| 69 nM | 26 nM | Cc1cc(-c2ccccc2CCNC(=O)c2ccn(C)n2)ccc1[C@H]1CNCC[C@@H]1c1cc(F)cc(F)c1 (racemic) [Structure 23] |
| 1.7 nM | 0.44 nM | CC(=O)NCCc1ccccc1-c1onc([C@H]2CNCC[C@]2(O)c2ccc(COCC(F)(F)COC(C)C)cc2)c1Br [Structure 112] |
| 1.2 nM | 0.66 nM | COCC(F)(F)COCc1ccc([C@@]2(O)CCNC[C@@H]2c2ccc(-c3ccccc3CCNC(C)=O)cc2C)cn1 [Structure 120] |
| 25 nM | 0.56 nM | COC(=O)NCCc1ccccc1-c1ccc([C@H]2CNCC[C@@H]2c2cc(F)cc(F)c2)c(C)c1 (racemic) [Structure 28] |
| 0.62 nM | 0.14 nM | C[C@H]1C[C@H](c2ccc(F)c(F)c2)[C@@H](c2nnc(-c3cccc(Cl)c3Cl)n2C2CC2)CN1 [Structure 93] |
| 250 nM | 12 nM | COCCCc1ccccc1-c1ccc([C@H]2CNCC[C@@H]2c2cccnc2N)c(Cl)c1 (racemic) [Structure 53] |
| 0.58 nM | 0.19 nM | CCOCC(F)(F)COCc1ccc([C@@]2(O)CCNC[C@@H]2c2noc(-c3ccccc3CCNC(C)=O)c2Br)cc1 [Structure 114] |
| 0.43 nM | 0.09 nM | CCOCC(F)(F)COCc1ccc([C@@]2(O)CCNC[C@@H]2c2ccc(-c3ccccc3CCNC(C)=O)cc2C)cc1 [Structure 122] |
| 0.95 nM | 0.17 nM | COCC(F)(F)COCc1ccc([C@@]2(O)CCNC[C@@H]2c2ccc(-c3ccccc3CCNC(C)=O)cc2C)cc1 (racemic) [Structure 55] |
| 8650 nM | 400 nM | O[C@]1(c2ccc(F)c(F)c2)CCNC[C@@H]1c1cc(-c2ccc(F)cc2Br)no1 [Structure 67] |
| 1810 nM | 71 nM | Cc1cc(-c2ccccc2CCNS(C)(=O)=O)ccc1[C@H]1CNCC[C@@H]1c1cc(F)cc(F)c1 (racemic) [Structure 19] |
